# Assay results from patent US7723301B2, “Pharmaceutical compositions comprising an anti-teratogenic compound and applications of the same” (The Board of Trustees of the University of Arkansas, priority 2007, dated 2010).
# Tests used:
# [1] = system: Bmp4 and Dkk1 expression in MEFs; assay: sqRT-PCR of Bmp4 and Dkk1 expression in MEFs; type: cell-based, mouse; details: 10 μg/ml, six hours
# Protocol: (§1) Primary limb bud cells (PLBCs) were isolated from 60 pooled wing and hindlimb buds of HH stages 23/24 embryos. Fibroblasts were gained from HH stage 34 chicken embryos or from 13.5 d.p.c. mouse embryos. Human embryonic fibroblasts were provided by Matthias Maass (2). Before adding reagents, all cell types were cultured for 16 hours in D-MEM (Gibco) plus 10% fetal calf serum (FCS) and 2% chicken serum. Treatment with thalidomide, phthalimide, recombinant human (rh) BMP4 (300 ng/ml; R&D Systems), juglone (5 μM; Sigma), recombinant mouse Noggin (30, 300, 1000 ng/ml in FIG. 4B; 300 ng/ml in FIGS. 4C and 6A), anti-human-DKK1 antibody (35, 350 and 1000 ng/ml in FIG. 4B; 350 ng/ml in FIGS. 4C and 6A), LiCl (3, 30, 60 mM in FIG. 4B; 30 mM in FIGS. 4C, 6A and 6C) and/or (2Z,3E)-6-Bromoindirubin-3-oxime (BIO, Gsk3-Inhibitor IX; 50, 500, 1000 nM in FIG. 4B; 500 nM in FIG. 6A; 50 and 500 nM in FIG. 6C; Calbiochem) were performed in Optimem1 (Invitrogen) plus 1% FCS. Unless otherwise noted, all treatments with thalidomide and rh-BMP4 and associated controls were done for six hours. […]
# RNA isolation, semi-quantitative RT-PCRs and whole mount in situ hybridizations were performed according to standard protocols that are well known within the art. […] Quantifications were performed using NIH Image 1.62.
# [2] = system: Bmp4 and Dkk1 expression in HEFs; assay: sqRT-PCR of Bmp4 and Dkk1 expression in HEFs; type: cell-based, human; details: 10 μg/ml, six hours
# Protocol: (§2) Primary limb bud cells (PLBCs) were isolated from 60 pooled wing and hindlimb buds of HH stages 23/24 embryos. Fibroblasts were gained from HH stage 34 chicken embryos or from 13.5 d.p.c. mouse embryos. Human embryonic fibroblasts were provided by Matthias Maass (2). Before adding reagents, all cell types were cultured for 16 hours in D-MEM (Gibco) plus 10% fetal calf serum (FCS) and 2% chicken serum. Treatment with thalidomide, phthalimide, recombinant human (rh) BMP4 (300 ng/ml; R&D Systems), juglone (5 μM; Sigma), recombinant mouse Noggin (30, 300, 1000 ng/ml in FIG. 4B; 300 ng/ml in FIGS. 4C and 6A), anti-human-DKK1 antibody (35, 350 and 1000 ng/ml in FIG. 4B; 350 ng/ml in FIGS. 4C and 6A), LiCl (3, 30, 60 mM in FIG. 4B; 30 mM in FIGS. 4C, 6A and 6C) and/or (2Z,3E)-6-Bromoindirubin-3-oxime (BIO, Gsk3-Inhibitor IX; 50, 500, 1000 nM in FIG. 4B; 500 nM in FIG. 6A; 50 and 500 nM in FIG. 6C; Calbiochem) were performed in Optimem1 (Invitrogen) plus 1% FCS. Unless otherwise noted, all treatments with thalidomide and rh-BMP4 and associated controls were done for six hours. Inhibitors were applied once at the beginning of incubation with the exception of LiCl that was added 150 minutes before harvesting the cells for further analyses. Pre-treatment with phenyl-N-t-butylnitrone (PBN; 2 mM; Sigma) was performed for one hour. Incubations with juglone were performed for two hours, if applicable, after a pre-treatment with PBN, Noggin, anti-Dkk1 antibody, LiCl or Gsk3-Inhibitor IX for one hour.
# (§3) RNA isolation, semi-quantitative RT-PCRs and whole mount in situ hybridizations were performed according to standard protocols that are well known within the art. RNA was isolated using TRIZOL (Gibco BRL) followed by DNAseI digestion. First strand synthesis was carried out with the Expand RT System (Roche) according to the manufacturer's instructions. PCR amplification was carried out primers and conditions within the knowledge of a person having skill in the relevant art. Quantifications were performed using NIH Image 1.62.
# [3] = system: Bmp4 and Dkk1 expression in PLBCs; assay: sqRT-PCR of Bmp4 and Dkk1 expression in PLBCs; type: cell-based, chicken; details: 10 μg/ml, six hours
# Protocol: as §2, §3
# chicken embryos = assay: Inhibitors counteracting thalidomide-induced limb truncations and microphthalmia in chicken embryos; type: in vivo
# Protocol: Fertilized eggs were purchased from Deindl GmbH, Rietberg-Varensell. They were incubated at 38° C. in a humidified incubator, windowed after one day and staged according to Hamburger and Hamilton (HH stage). Racemic thalidomide (Celgene), thalidomide enantiomers or phthalimide (Sigma) were dissolved in DMSO at 5 mg/ml and further diluted in PBS. Embryos were exposed to drugs by dropping 15 μg-3 mg thalidomide or phthalimide per kg egg weight (about 1-200 μg per embryo) in 50 μl DMSO/PBS as a single dose at HH stages 0-13 onto the embryo. Thalidomide (50 μg) or phthalimide (50 μg) in 10 μl DMSO was injected into the extra-embryonic blood vessels of HH 19 stage embryos. LiCl (99% pure, Sigma) was dissolved in sterile PBS. LiCl (0.1, 0.6 or 3.2 mg) was applied at HH stages 17-19 by dropping 500 μl of a 5 mM, 28 mM or 151 mM LiCl solution onto the embryo. Recombinant Noggin, Dkk1 specific goat IgG (R&D Systems) or serum of non-immunized goats (Sigma) was dissolved in 0.1% BSA/0.01% Fast Green/PBS. Noggin (10 or 100 ng), Dkk1 specific goat IgG (5 or 50 ng) or serum of non-immunized goats (50 ng) was applied to a single embryo at HH stages 17-19 by injecting a 10 μl solution through the extra-embryonic membranes.
# The morphology of the limbs was studied in specimens fixed in 5% trichloroacetic acid and stained for cartilage with alcian green as described (3).
# [4] = system: human embryonic fibroblasts (HEFs); assay: Cell death by trypan blue staining in HEFs; type: cell-based
# Protocol: as §2
# (§4) Cell death in PLBCs, CEFs, MEFs and HEFs was detected by staining with trypan blue (0.1% (w/v) in PBS; Sigma) for 90 seconds. Cells were counted in a counting chamber to determine the ratio of dead to live cells.
# β-catenin [5] = assay: Sub-cellular localization of β-catenin in CEFs; type: cell-based, chicken; details: in the presence of Wnt3a, data not shown
# Protocol: (§5) CEFs or HEFs attached on cover slips were incubated with Wnt3a-conditioned medium including thalidomide or solvent or with control medium for five hours. β-catenin was detected by using a mouse anti-β-catenin antibody (1:500, BD Transduction Laboratories), an anti-mouse Cy3-coupled secondary antibody (Dianova) and fluorescence microscopy. Afterwards, a DAPI staining was performed as a control. Quantification was done by counting the nuclei with a clear fluorescent signal in relation to the number of DAPI-stained nuclei.
# [6] = system: primary embryonic fibroblasts of mice (MEFs); assay: Cell death by trypan blue staining in MEFs; type: cell-based, mouse
# Protocol: as §1, §4
# Wnt/β-catenin signaling = assay: TOPflash luciferase reporter assay in CEFs; type: cell-based, chicken; details: Wnt3a-conditioned medium, 24 hours
# Protocol: Plasmids with wild type (TOPflash) or mutated (FOPflash) LEF/TCF binding sites (5) upstream of a luciferase reporter gene were transiently transfected into CEFs using Lipofectamine (Invitrogen). Following transfection for 24 hours, the cells were exposed to Wnt3a-conditioned medium or to control medium (6) with or without thalidomide or recombinant human DKK1 (150 ng/ml, R&D Biosystems) for 24 hours prior to luciferase assay. Values were normalized for transfection efficiency by co-transfection with a pSV-β-galactosidase vector and for the number of living cells. Luciferase activity was measured using the Dual-Light System (Applied Biosystems).
# [7] = system: primary chicken embryonic fibroblasts (CEFs); assay: Cell death by trypan blue staining in CEFs; type: cell-based; details: 38.7 μM (10 μg/ml), six hours
# Protocol: as §2, §4
# [8] = system: Dkk1 and Bmp expression in limb buds; assay: sqRT-PCR and whole mount in situ hybridization of Dkk1 and Bmp expression in limb buds; type: in vivo, chicken
# Protocol: as §3
# β-catenin [9] = assay: Sub-cellular localization of β-catenin in HEFs; type: cell-based, human; details: in the presence of Wnt3a; about 70% with Wnt3a alone
# Protocol: as §5
compound,measurement,setting,value
"O=C1CCC(N2C(=O)c3ccccc3C2=O)C(=O)N1 (racemic) [thalidomide, 2-(2,6-dioxo-3-piperidyl)isoindole-1,3-dione]",expression of Bmp4 and Dkk1 in MEFs,[1],not in MEFs
same,expression of Bmp4 and Dkk1 in HEFs,[2],induced the expression
same,expression of Bmp4 and Dkk1 in PLBCs,[3],induced the expression
same,"embryos with limb truncations, thalidomide-treated control embryos",chicken embryos; control of the anti-Dkk1 antibody experiment (FIG. 7B),15%
same,"embryos with microphthalmia, thalidomide-treated control embryos",chicken embryos; in vivo,23%
same,"embryos with limb truncations, thalidomide treatment",chicken embryos; survived to day seven (FIG. 7A),19%
same,potential to induce PCD in HEFs,[4],very similar to that in chicken embryonic cells
same,EC50,"[4]; Homo sapiens, Fibroblast, 6 h, treated for six hours, read-out: EC50 for induction of apoptosis (PCD) in HEFs",8.9 µM
same,number of CEFs positive for nuclear β-catenin,β-catenin [5],dramatic reduction
same,induction of cell death in MEFs,"[6]; 38.7 μM (10 μg/ml), six hours",did not induce cell death
same,induction of cell death in MEFs with longer incubation times and concentrations up to 100 μg/ml,"[6]; up to 100 μg/ml, data not shown",did not significantly induce cell death above controls
same,effect on Wnt3a-induced TOPflash activity,Wnt/β-catenin signaling,clearly counteracted
same,induction of PCD in CEFs compared to controls,[7],six-fold
same,expression level of Bmp2 in limb buds (sqRT-PCR),[8]; HH stages 23/24 embryos,not significantly affected
same,"expression of Bmp4, Bmp5 and Bmp7 in limb buds (sqRT-PCR)",[8]; HH stages 23/24 embryos,clearly up-regulated
same,Dkk1 expression in limb buds (sqRT-PCR),"[8]; HH stages 23/24 embryos, in comparison to controls",dramatically enhanced
same,limb buds with Bmp4 expression dramatically up-regulated (whole mount in situ hybridization),"[8]; HH stages 23/24 embryos, AER, ANZ and PNZ",20 of 36
same,limb buds with Dkk1 expression clearly enhanced (whole mount in situ hybridization),"[8]; HH stages 23/24 embryos, AER, underlying mesenchyme and ANZ",19 of 64
same,limb buds with enhanced Bmp expression and PCD,[8]; in vivo,55%
same,limb buds with increased Dkk1 expression,[8]; in vivo,30%
same,HEFs positive for nuclear β-catenin,β-catenin [9],10%
